Data on one compound can be found in ChEMBL document CHEMBL1149001, “Phebalosin from the bark of Micromelum minutum” (J Nat Prod, 1986).

The structures appear in SMILES notation. In brackets after ≈: the same amount, converted by molar mass.

For one data set, the system named is Artemia. The data set is described as follows: Toxicity in brine shrimp. Type of data set: organism-based. The following applies: in vivo.
In data set [1] the test system is Agrobacterium tumefaciens. The data set is described as follows: Antitumor activity against Agrobacterium tumefaciens-induced crown gall tumors assessed as inhibition of tumor development in potato by crown gall tumor potato disk test. In kind it is functional. Also noted: scale not given: the % may be the effect or the level left.
A short description of data set [2]: Cytotoxicity against human 9KB cells. In kind it is functional. The following applies: read-out: ED50 (the source's name).
Data set [3] can be described thus: Cytotoxicity against mouse 9PS cells. Type of data set: functional. The following applies: read-out: ED50 (the source's name).

`C=C(C)[C@H]1O[C@@H]1c1c(OC)ccc2ccc(=O)oc12` [PHEBALOSIN] returned an LC50 in the data set on Artemia of 47 ppm. In data set [1], the Activity was -70%. The EC50 in data set [2] is more than 20 µg/mL; in data set [3], 27 µg/mL (≈ 105 µM).

For orientation: LC50 means the concentration lethal to half of the exposed cells or organisms.
